From patent publication US5709901A (priority 1994, dated 1998) come the findings set out here.

Entries after “also recorded” stand apart in the source; their conditions may differ. Square brackets hold non-standard residues; d marks the D form. Peptide text beside a SMILES is read from it. * marks the point of attachment. Sta = CC(C)C[C@H](N)[C@@H](O)CC(=O)O; Isovaleryl = CC(C)CC(=O)*

The subject of test [1] is PF-1. It is filed as biochemical, Bacillus sp. KSM-PF1. The settings on record: for residual activity of PF-1 relative to control as 100: pH 7.
Test [2] has as its system PF-2. Format: biochemical, Bacillus sp. KSM-PF2. The settings on record: for residual activity of PF-2 relative to control as 100: pH 7.
A short description of test [3]: Meat tenderization test, 5-mm thick round (Example 3, FIG. 1). Particulars: for tenderizing effect (in words) / time in which the tenderizing effect is exerted: 5-mm thick meat, 20° C., per 10 g: PF-1 100 U, papain 10 U or 1 U, elastase 250 U; for tenderizing effect (in words): PF-2 45 U; for time to overtenderizing effect: 5 mm or 15 mm. The protocol:
The metalloprotease of the present invention preferably tenderizes round in such a manner that the shear force value of the round thus tenderized is from 20% to 70% (preferably from 25% to 65%, particularly from 30% to 50% of that of the untenderized round (round which has not been processed with the metalloprotease of the present invention) when the round has a thickness of 5 mm. The shear force value as defined herein is determined by subjecting the meat sample to cutting by a meat shear (Warner Bratzler Type 3000, available from Warner Bratzler Corp.). The meat sample is obtained by subjecting round to enzymatic processing at a temperature of 20° C., and then grilled-the round thus processed on both sides thereof at 200° C. (grilled on one side for 1 minute and one the other side for 45 seconds).
As the meat to be tested there was used a low grade round (100 g) imported from Australia. The meat was sliced to 5-mm thick pieces by a meat slicer. Prominent strings were removed. About 20 g of the sliced meat was then molded. The molded meat was uniformly sprinkled with the enzyme powder, covered with a wrap, and then allowed to stand at room temperature (20° C.) for a predetermined period of time. The meat thus processed was then grilled over a 200° C. hot plate for 1 minute on one side and for 45 seconds on the other side. The meat thus grilled was then cut into 3-cm wide strips. The strips were then measured for shear force value (SFV) by means of a meat shear (Warner Bratzler Type 3000, available from Warner Bratzler Corp.). As comparative enzymes, a papain powder (available from Amano Co., Ltd.) and an elastase powder (reagent available from Sigma Co., Ltd.) were subjected to the same meat tenderization test as mentioned above.

Test [4] in a line: Meat tenderization test, 15-mm thick round (Example 4, FIG. 2). Particulars: 15-mm thick meat, 20° C., per 10 g: PF-1 100 U, papain 10 U or 1 U, elastase 250 U; for tenderizing effect (in words): PF-2 45 U. The protocol: The same meat as used in Example 3 was sliced perpendicular to muscular fibers to 15-mm thick pieces by a meat slicer. A maximum homogeneous portion of the sliced meat was molded into an about 30 g rod. The molded meat was uniformly sprinkled with the enzyme powder, covered with a wrap, and then allowed to stand at room temperature (20° C.) for a predetermined period of time. The meat thus processed was then grilled over a 200° C. hot plate for 3 minutes on each side. The meat thus grilled was cut into 2-cm wide strips which were then measured for shear force value in the same manner as in Example 3. As comparative enzymes, the same papain powder (available from Amano Co., Ltd.) and elastase powder (reagent available from Sigma Co., Ltd.) as used in Example 3 were subjected to the same meat tenderization test as mentioned above.

Test [5] can be described thus: Meat tenderization test of conventional proteases (background). The settings on record: for time to overtenderize the meat: 0.1 based on the weight of the meat. The text has this: As a meat tenderizer there has been heretofore used a protease. One of the most frequently used meat tenderizers is papain derived from papaya. However, papain is disadvantageous in that it is hard to control in tenderization (i.e., control over the progress of tenderization to a proper level) and its use is restricted by the added amount thereof and the processing time. In fact, papain was subjected to meat tenderization test. As a result, even when used in an amount as extremely small as 0.1 based on the weight of the meat to be tested, this enzyme overtenderized the meat within 1 hour at room temperature and in a period of time as short as 24 hours at a temperature as low as 4° C. The meat thus overtenderized was too unsavory to be served. This is because proteases derived from plants have a low substrate specificity.
On the other hand, a method has been proposed which comprises the specific decomposition of a connective tissue in a meat with elastase, which has a high substrate specificity, to tenderize the meat (JP-A-4-197156 (The term "JP-A" as used herein means an "unexamined published Japanese patent application"), JP-A-5-276899). However, this approach is disadvantageous in that elastase is hard to produce and must be used in a relatively large amount and requires a prolonged processing time to exert desired effects as compared with the foregoing proteases. It has also been point out that elastase cannot tenderize a meat sufficiently even if the added amount thereof and the processing time are increased (JP-A-6-169729).

For `CC(C)CC(=O)N[C@H](C(=O)N[C@H](C(=O)N[C@@H](CC(C)C)[C@@H](O)CC(=O)N[C@@H](C)C(=O)N[C@@H](CC(C)C)[C@@H](O)CC(=O)O)C(C)C)C(C)C` [Pepstatin, pepstatin] (Isovaleryl-VV[Sta]A[Sta]-OH), in test [1], the “inhibition of PF-1 activity (in words)” value is listed as “not inhibited” and the “residual activity of PF-1 relative to control as 100” value was 108%. Also, in test [2], the “inhibition of PF-2 activity (in words)” value is recorded as “not inhibited” and the “residual activity of PF-2 relative to control as 100” value is recorded as 100%.
As for elastase, the “tenderizing effect (in words)” value is listed as “some tenderizing effect; also recorded: a proper tenderness cannot be obtained” in test [3] (listed as elastase powder), “some tenderizing effect; also recorded: a proper tenderness cannot be obtained” in test [4] (listed as elastase powder) and “slightly tenderized; also recorded: the tenderness thus obtained was insufficient” in test [5] (reagent grade elastase). In addition, the “time in which the tenderizing effect is exerted” value in test [3] and in test [4] was 24 h in each case. Also, the “tenderizing effect, summary of Examples 3 and 4 (in words)” value in test [3] (meat thickness either 5 mm or 15 mm, up to 24 hours) was “cannot exert an effect of properly tenderizing the meat”.
As to `[Cl][Cu][Cl]` [CuCl2], the “residual activity of PF-1 relative to control as 100” value in test [1] stood at 37%. Moreover, the “residual activity of PF-2 relative to control as 100” value in test [2] is 20%.
Taken in the same sequence, the figures for `[Cl-].[Cl-].[Co+2]` [CoCl2] were 103% and 78%.
On to `O=C(O)CN(CCN(CC(=O)O)CC(=O)O)CC(=O)O` [EDTA, ethylenediaminetetraacetic acid], for which, in test [1], the “inhibition of PF-1 activity (in words)” value is “inhibited” and the “residual activity of PF-1 relative to control as 100” value was found to be 45%. Moreover, in test [2], the “inhibition of PF-2 activity (in words)” value is listed as “inhibited” and the “residual activity of PF-2 relative to control as 100” value is given as 30%.
For the molecule `O[C@H](CS)[C@H](O)CS` (racemic) [DTT, dithiothreitol], in test [1], the “inhibition of PF-1 activity (in words)” value was “not inhibited” and the “residual activity of PF-1 relative to control as 100” value was determined as 70%. Further, in test [2], the “inhibition of PF-2 activity (in words)” value was “not inhibited” and the “residual activity of PF-2 relative to control as 100” value is 81%.
Take `[Cl][Mn][Cl]` [MnCl2]: the “residual activity of PF-1 relative to control as 100” value in test [1] amounted to 103%. The “residual activity of PF-2 relative to control as 100” value in test [2] stood at 62%.
For the molecule leupeptine [Leupepsin], in test [1], the “inhibition of PF-1 activity (in words)” value was “not inhibited” and the “residual activity of PF-1 relative to control as 100” value is given as 82%. Moreover, in test [2], the “inhibition of PF-2 activity (in words)” value is “not inhibited” and the “residual activity of PF-2 relative to control as 100” value is 91%.
Take `[Ca+2].[Cl-].[Cl-]` [CaCl2]: the “residual activity of PF-1 relative to control as 100” value in test [1] is recorded as 104%. Besides, the “residual activity of PF-2 relative to control as 100” value in test [2] is reported as 76%.
Taken in the same sequence, the figures for `[Cl][Fe]([Cl])[Cl]` [FeCl3] were 98% and 9%.
Take `O=C(O)CI` [Monoiodoacetic acid, monoiodoacetic acid]: in test [1], the “inhibition of PF-1 activity (in words)” value was “not inhibited” and the “residual activity of PF-1 relative to control as 100” value turned out to be 105%. Further, in test [2], the “inhibition of PF-2 activity (in words)” value was “not inhibited” and the “residual activity of PF-2 relative to control as 100” value was 100%.
For `[Cl-].[Cl-].[Mg+2]` [MgCl2], the “residual activity of PF-1 relative to control as 100” value in test [1] was 107%. In addition, in test [2], the “residual activity of PF-2 relative to control as 100” value was 74%.
`[Cl][Ni][Cl]` [NiCl2]: the “residual activity of PF-1 relative to control as 100” value in test [1] is recorded as 92%. Further, the “residual activity of PF-2 relative to control as 100” value in test [2] is 28%.
`[Cl-].[Cl-].[Zn+2]` [ZnCl2]: in test [1], the “residual activity of PF-1 relative to control as 100” value is on record as 88%. Moreover, the “residual activity of PF-2 relative to control as 100” value in test [2] is listed as 58%.
The matching figures for `[Cl][Hg][Cl]` [HgCl2]: 40% and 62%.
With `[Cl][Fe][Cl]` [FeCl2], the “residual activity of PF-2 relative to control as 100” value in test [2] amounted to 28%.
As for `O=S(=O)(F)Cc1ccccc1` [PNSF, phenylmethanesulfonylfluoride], in test [1], the “inhibition of PF-1 activity (in words)” value is “not inhibited” and the “residual activity of PF-1 relative to control as 100” value was determined as 124%. For the same molecule, in test [2], the “inhibition of PF-2 activity (in words)” value is listed as “not inhibited” and the “residual activity of PF-2 relative to control as 100” value stood at 80%.

B1: papain (protein, UniProt P00784 134-345, looked up)
Papain: IPEYVDWRQKGAVTPVKNQGSCGSCWAFSAVVTIEGIIKIRTGNLNEYSEQELLDCDRRSYGCNGGYPWSALQLVAQYGIHYRNTYPYEGVQRYCRSREKGPYAAKTDGVRQVQPYNEGALLYSIANQPVSVVLEAAGKDFQLYRGGIFVGPCGNKVDHAVAAVGYGPNYILIKNSWGTGWGENGYIRIKRGTGNSYGVCGLYTSSFYPVKN
As to B1, the “tenderizing effect (in words)” value in test [3] and in test [4] was “overtenderizing effect” each time. For the same molecule, the “time in which the tenderizing effect is exerted” value in test [3] and in test [4] was “several” in each case. In addition, the “time to overtenderizing effect” value in test [3] (used in a large amount) was “several minutes to scores of minutes”; in test [3] (used in a reduced amount), “several hours”. Moreover, the entries for the “time to overtenderize the meat” value in test [5] (4° C.) and in test [5] (room temperature) were 24 h and no more than 1 h, respectively.
